Reference: patent US20260062412A1, “NITROGEN-CONTAINING HETEROCYCLIC COMPOUND HAVING MYT1 INHIBITORY ACTIVITY” (CHUGAI SEIYAKU KABUSHIKI KAISHA, priority 2023, published 2026)
Where a name gives a salt, the structure may show the parent alone.

Each compound was assayed against MYT1 protein (Homo sapiens (Human), UniProt Q99640) (assay: Test for binding to ATP binding site of MYT1 (Kinase Tracer 178 / Eu-Anti-GST antibody TR-FRET)). Details: ATP binding site of MYT1, 30 minutes at room temperature.
Sequence of MYT1 protein (Q99640 whole entry): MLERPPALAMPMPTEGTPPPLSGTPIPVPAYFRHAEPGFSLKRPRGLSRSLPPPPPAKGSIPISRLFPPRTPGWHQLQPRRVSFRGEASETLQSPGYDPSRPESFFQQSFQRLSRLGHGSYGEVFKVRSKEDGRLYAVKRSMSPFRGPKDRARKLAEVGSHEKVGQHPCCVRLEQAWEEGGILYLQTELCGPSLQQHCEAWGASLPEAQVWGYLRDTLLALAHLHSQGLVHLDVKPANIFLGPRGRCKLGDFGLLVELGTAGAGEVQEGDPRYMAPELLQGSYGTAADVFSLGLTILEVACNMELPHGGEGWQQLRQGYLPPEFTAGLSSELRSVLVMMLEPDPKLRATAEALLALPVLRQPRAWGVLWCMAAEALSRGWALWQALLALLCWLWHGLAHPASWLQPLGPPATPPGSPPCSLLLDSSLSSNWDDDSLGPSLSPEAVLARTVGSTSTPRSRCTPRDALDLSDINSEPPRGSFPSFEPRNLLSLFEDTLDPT

Row | SMILES | IC50
1 | Cn1ncc2c(C3CC3)cc3c(-c4ccc(F)c5[nH]ncc45)c(N)c(=O)[nH]c3c21 [Compound I3, 7-Amino-4-cyclopropyl-6-(7-fluoro-1H-indazol-4-yl)-1-methyl-9H-pyrazolo[4,3-h]quinolin-8-one] | 8 nM
2 | Nc1c(-c2ccc(F)c3[nH]ncc23)c2cc(Br)c3cncnc3c2[nH]c1=O [Compound J1, 8-Amino-5-bromo-7-(7-fluoro-1H-indazol-4-yl)-10H-pyrido[3,2-h]quinazolin-9-one] | 7.3 nM
3 | Cc1cc2c(-c3ccc(F)c4[nH]ncc34)c(N)c(=O)[nH]c2c2ncncc12 [Compound J2, 8-Amino-7-(7-fluoro-1H-indazol-4-yl)-5-methyl-10H-pyrido[3,2-h]quinazolin-9-one] | 3.1 nM
4 | Nc1c(-c2ccc(F)c3[nH]ncc23)c2cc(C3CC3)c3cncnc3c2[nH]c1=O [Compound J3, 8-Amino-5-cyclopropyl-7-(7-fluoro-1H-indazol-4-yl)-10H-pyrido[3,2-h]quinazolin-9-one] | 3.5 nM
5 | Nc1c(-c2ccc(F)c3[nH]ncc23)c2cc(Br)c3ncsc3c2[nH]c1=O [Compound K1, 7-Amino-4-bromo-6-(7-fluoro-1H-indazol-4-yl)-9H-[1,3]thiazolo[4,5-h]quinolin-8-one] | 1.7 nM
6 | Cc1cc2c(-c3ccc(F)c4[nH]ncc34)c(N)c(=O)[nH]c2c2scnc12 [Compound K2, 7-Amino-6-(7-fluoro-1H-indazol-4-yl)-4-methyl-9H-[1,3]thiazolo[4,5-h]quinolin-8-one] | 1.2 nM
7 | Nc1c(-c2ccc(F)c3[nH]ncc23)c2cc(C3CC3)c3ncsc3c2[nH]c1=O [Compound K3, 7-Amino-4-cyclopropyl-6-(7-fluoro-1H-indazol-4-yl)-9H-[1,3]thiazolo[4,5-h]quinolin-8-one] | 50 nM
8 | Nc1c(-c2ccc(F)c3[nH]ncc23)c2cc(Br)c3ccsc3c2[nH]c1=O [Compound L1, 7-Amino-4-bromo-6-(7-fluoro-1H-indazol-4-yl)-9H-thieno[3,2-h]quinolin-8-one] | 3 nM
9 | Cc1cc2c(-c3ccc(F)c4[nH]ncc34)c(N)c(=O)[nH]c2c2sccc12 [Compound L2, 7-Amino-6-(7-fluoro-1H-indazol-4-yl)-4-methyl-9H-thieno[3,2-h]quinolin-8-one] | 1.8 nM
10 | Cn1cnc2c3[nH]c(=O)c(N)c(-c4ccc(F)c5[nH]ncc45)c3cc(Br)c21 [Compound M1, 7-Amino-4-bromo-6-(7-fluoro-1H-indazol-4-yl)-3-methyl-9H-imidazo[4,5-h]quinolin-8-one] | 10 nM
11 | Cc1cc2c(-c3ccc(F)c4[nH]ncc34)c(N)c(=O)[nH]c2c2ncn(C)c12 [Compound M2, 7-Amino-6-(7-fluoro-1H-indazol-4-yl)-3,4-dimethyl-9H-imidazo[4,5-h]quinolin-8-one] | 14 nM
12 | Cn1cnc2c3[nH]c(=O)c(N)c(-c4ccc(F)c5[nH]ncc45)c3ccc21 [Compound M3, 7-Amino-6-(7-fluoro-1H-indazol-4-yl)-3-methyl-9H-imidazo[4,5-h]quinolin-8-one] | 99 nM
13 | Nc1c(-c2ccc(F)c3[nH]ncc23)c2cc(Br)c3scnc3c2[nH]c1=O [Compound N1, 7-Amino-4-bromo-6-(7-fluoro-1H-indazol-4-yl)-9H-[1,3]thiazolo[5,4-h]quinolin-8-one] | 5.3 nM
14 | Cc1nccc2c1c(Br)cc1c(-c3ccc(F)c4[nH]ncc34)c(N)c(=O)[nH]c12 [Compound P2, 3-Amino-6-bromo-4-(7-fluoro-1H-indazol-4-yl)-7-methyl-1H-1,8-phenanthrolin-2-one] | 13 nM
15 | Nc1c(-c2ccc(F)c3[nH]ncc23)c2cc(Br)c3cnccc3c2[nH]c1=O [Compound P3, 3-Amino-6-bromo-4-(7-fluoro-1H-indazol-4-yl)-1H-1,8-phenanthrolin-2-one] | 12 nM
16 | Nc1c(-c2cccc(O)c2)c2ccc3cnccc3c2[nH]c1=O [Compound P5, 3-Amino-4-(3-hydroxyphenyl)-1H-1,8-phenanthrolin-2-one; hydrobromide] | 3.9 nM
